Test results taken from patent US8802638B1, “Flavonoid treatment of glycogen synthase kinase-based disease” (University of South Florida, priority 2007, dated 2014).

Columns and labels:
PS1 = assay: Western blot of PS1 C-terminal fragment phosphorylation in SweAPP N2a cells; assay type: cell-based, murine
Experimental: Cultured cells or mouse brain were lysed in ice-cold lysis buffer described above, and an aliquot corresponding to 50 μg of total protein was electrophoretically separated using 12% Tris-HCl or 16.5% Tris-tricine gels. Electrophoresed proteins were then transferred to PVDF membranes, washed in dH2O, and blocked for 1 hr at ambient temperature in Tris-buffered saline (TBS; Bio-Rad) containing 5% (w/v) non-fat dry milk. After blocking, membranes were hybridized for 1 hr at ambient temperature with various primary antibodies. Membranes were then washed 3× for 5 min each in dH2O and incubated for 1 hr at ambient temperature with the appropriate HRP-conjugated secondary antibody (1:1,000). All antibodies were diluted in TBS containing 5% (w/v) of non-fat dry milk. Blots were developed using the luminol reagent (Pierce Biotechnology). Densitometric analysis was done as previously described using a FluorS Multiimager with Quantity One™ software. Immunoprecipitation was performed for detection of sAPP-α, sAPP-β and Aβ by incubating 200 μg of total protein of each sample with various sequential combinations of 6E10 (1:100) and/or 22C11 (1:100) antibodies overnight with gentle rocking at 4° C., and 10 μL of 50% protein A-Sepharose beads were then added to the sample (1:10; Sigma) prior to gentle rocking for an additional 4 hrs at 4° C. Following washes with 1× cell lysis buffer, samples were subjected to Western blot as described above. Antibodies used for Western blot included the APP-carboxyl-terminal antibody (1:50)), amino-terminal APP antibody (clone 22C11), or 6E10 (1:1,000), or actin antibody (1:1,500; as an internal reference control). γ-secretase activity was quantified in cell lysates using available kits (R&D Systems, Minneapolis, Minn.), based on secretase-specific peptides conjugated to fluorogenic reporter molecules.
The two bands of highest molecular weight, approximately 20 kD and 18 kD in size, represent phosphorylated PS1 CTFs with a smaller 16 kD band representing the more common CTF product indicative of PS1 endoproteolytic cleavage.
To confirm that the 20 kD and 18 kD bands were phosphorylated PS1 isoforms, SweAPP N2a cells were treated with luteolin (20 μM) prior to lysis and cell lysates incubated with calf intestine alkaline phosphatase (CIAP) (Fermentas, Hanover, Md.), to dephosphorylate any potential phosphorylated proteins, to eliminate skewing of electrophorectic mobilities. Following 30 minutes of incubation, the 20 kD band is not evident in the CIAP treated lysates, seen in FIGS. 21(A) through 22, and the 18 kD band reduced while endogenous CTF, 16 kD, appears to accumulate. When compared to lysates incubated with only reaction buffer, phosphorylated residues decrease in a time dependent manner, shown by the 20 kD CTF:16 kD CTF. […] Luteolin affects PS1 phosphorylation and may indicate a means by which γ-secretase activity may be regulated.
To determine if this phenomenon was specifically attributable to luteolin treatment or more generally in regards to GSK-3 inhibition, SweAPP N2a cells were treated with a range of doses of the GSK-3 inhibitor SB-415286 (BIOMOL®, Plymouth Meeting, Pa.). […] FIG. 24(B). GSK-3α and β was successfully knocked-down (>70%, data not shown) with siRNA in SweAPP N2a cells, substantiating the role of GSK-3α in this luteolin-mediated PS1 processing. […]

β-catenin = β-catenin after luteolin treatment; assay type: cell-based; settings: data not shown
GSK-3α/β = assay: GSK-3 activation in brain homogenates of luteolin-treated Tg2576 mice; assay type: in vivo; settings: 20 mg/kg i.p. daily for 30 days
Experimental: Sixteen (8♂/8♀) Tg2576 mice (Taconic, Germantown, N.Y.) were used; 8 mice received luteolin, and the other 8 received phosphate buffered saline (PBS). Beginning at 8 months of age, Tg2576 mice were intraperitoneally injected with luteolin (20 mg/kg) or PBS daily for 30 days based on previously described methods. These mice were then sacrificed at 9 months of age for analyses of Aβ levels and Aβ load in the brain according to previously described methods. Animals were housed and maintained in the College of Medicine Animal Facility at the University of South Florida (USF), and all experiments were in compliance with protocols approved by the USF Institutional Animal Care and Use Committee.
Cultured cells or mouse brain were lysed in ice-cold lysis buffer described above, and an aliquot corresponding to 50 μg of total protein was electrophoretically separated using 12% Tris-HCl or 16.5% Tris-tricine gels. […] Densitometric analysis was done as previously described using a FluorS Multiimager with Quantity One™ software (39). […] Antibodies used for Western blot included the APP-carboxyl-terminal antibody (1:50)), amino-terminal APP antibody (clone 22C11), or 6E10 (1:1,000), or actin antibody (1:1,500; as an internal reference control). γ-secretase activity was quantified in cell lysates using available kits based on secretase-specific peptides conjugated to fluorogenic reporter molecules. […]

O=c1cc(-c2ccc(O)c(O)c2)oc2cc(O)cc(O)c12 [luteolin]
PS1 CTF phosphorylation (phospho-PS1 CTF to PS1 CTF ratio) (PS1): PS1 CTF phosphorylation increases
full-length PS1 or PS1 NTF protein levels (PS1; range of doses, 4 hrs): no significant effect
β-catenin (β-catenin): remains unaffected
GSK-3α/β active isoforms (ratio of phosphorylated to holo GSK-3) (GSK-3α/β): reduced when compared to control
